Results from patent US20240247080A1, “GLP1/GIP/NPY2 RECEPTOR TRIPLE AGONISTS” (Boehringer Ingelheim International GmbH, priority 2022, published 2024).
Where two headings read alike, the source gives them in different places. Starred links: 1 amine or outer side, 2 acyl side, 3 side chain; linkers in the order of their positions; H or OH if unused. Non-standard residues stand in square brackets, D forms with d. Groups on a side chain read outwards from the residue. *: point of attachment. C20 diacid = O=C(O)CCCCCCCCCCCCCCCCCCC(=O)*; C18 diacid = O=C(O)CCCCCCCCCCCCCCCCC(=O)*; γGlu = O=C(O)[C@H](CCC(=O)[*:2])N[*:1]; εLys = N[C@@H](CCCCN[*:1])C(=O)[*:2]; AEEA = NCCOCCOCC(=O)O; Aib = CC(C)(N)C(=O)O

Key:
Format in all cases: cell-based
Conditions in all cases: CreLuc reporter gene assay
hGIPR = target: T1, hGIPR (Homo sapiens, UniProt P48546); experiment: hGIPR CreLuc reporter gene assay in 0.5% and 100% plasma
T1 construct: expressed in transfected cells; host or cells: CHO cells carrying a CRE-luciferase reporter gene
T1 sequence (P48546 22-466): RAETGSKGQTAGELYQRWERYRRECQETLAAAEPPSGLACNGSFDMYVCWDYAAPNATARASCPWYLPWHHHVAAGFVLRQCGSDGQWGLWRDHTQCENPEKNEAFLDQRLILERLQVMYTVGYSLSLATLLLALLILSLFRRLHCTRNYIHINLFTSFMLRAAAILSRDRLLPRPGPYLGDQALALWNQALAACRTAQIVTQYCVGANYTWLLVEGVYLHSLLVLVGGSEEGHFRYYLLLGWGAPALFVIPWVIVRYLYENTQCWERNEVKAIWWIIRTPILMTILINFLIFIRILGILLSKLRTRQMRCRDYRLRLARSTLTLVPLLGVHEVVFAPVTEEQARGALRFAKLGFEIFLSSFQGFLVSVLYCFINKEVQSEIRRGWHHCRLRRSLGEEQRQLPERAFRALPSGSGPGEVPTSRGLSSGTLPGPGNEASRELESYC
How it was run: (§1)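 HEK cells (GLP-1R, NPY2R) or CHO cells (GIPR) carrying a CRE-luciferase reporter, incubated 4 h at 37 °C with peptides in HBSS/20 mM HEPES pH 7.4 plus 0.5% human plasma, or in 100% plasma. Luminescence read; EC50 from 8-point variable-slope sigmoid fits.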

hGLP1R = target: T2, hGLP1R (Homo sapiens, UniProt P43220); experiment: hGLP1R CreLuc reporter gene assay in 0.5% and 100% plasma
T2 construct: expressed in transfected cells; host or cells: HEK-293 cells carrying a CRE-luciferase reporter gene
T2 sequence (P43220 24-463): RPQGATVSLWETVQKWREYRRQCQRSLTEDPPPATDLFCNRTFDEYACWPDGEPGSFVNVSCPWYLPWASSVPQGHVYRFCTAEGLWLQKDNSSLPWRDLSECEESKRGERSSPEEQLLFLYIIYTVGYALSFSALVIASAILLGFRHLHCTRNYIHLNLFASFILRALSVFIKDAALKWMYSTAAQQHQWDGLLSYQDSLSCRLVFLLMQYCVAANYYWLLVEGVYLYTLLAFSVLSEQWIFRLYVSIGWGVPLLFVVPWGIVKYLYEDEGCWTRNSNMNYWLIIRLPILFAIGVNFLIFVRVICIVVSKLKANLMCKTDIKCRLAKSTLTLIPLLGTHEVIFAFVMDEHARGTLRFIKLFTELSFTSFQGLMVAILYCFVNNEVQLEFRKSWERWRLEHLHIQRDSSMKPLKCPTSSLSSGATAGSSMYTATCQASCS
How it was run: as §1

hNPY2R = target: T3, hNPY2R (Homo sapiens, UniProt P49146); experiment: hNPY2R CreLuc reporter gene assay in 0.5% and 100% plasma
T3 construct: expressed in transfected cells; host or cells: HEK-293 cells carrying a CRE-luciferase reporter gene
T3 sequence (P49146 1-381): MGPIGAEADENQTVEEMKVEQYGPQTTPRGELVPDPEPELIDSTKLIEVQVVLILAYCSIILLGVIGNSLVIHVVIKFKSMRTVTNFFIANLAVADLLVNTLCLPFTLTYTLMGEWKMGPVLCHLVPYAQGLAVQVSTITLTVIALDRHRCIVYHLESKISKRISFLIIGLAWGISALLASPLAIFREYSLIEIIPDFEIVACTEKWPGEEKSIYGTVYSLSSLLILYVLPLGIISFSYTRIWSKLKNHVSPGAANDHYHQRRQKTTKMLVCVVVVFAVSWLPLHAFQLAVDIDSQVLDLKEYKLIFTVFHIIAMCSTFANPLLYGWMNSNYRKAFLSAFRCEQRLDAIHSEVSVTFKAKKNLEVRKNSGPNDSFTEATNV
How it was run: as §1

[1] = 0.5% human plasma, read-out: hGIPR 0.5% hP
[2] = 0.5% human plasma, read-out: hGLP1R 0.5% hP
[3] = 0.5% human plasma, read-out: hNPY2R 0.5% hP
[4] = 100% human plasma, read-out: hGIPR 100% hP
[5] = 100% human plasma, read-out: hNPY2R 100% hP
[6] = 100% human plasma, read-out: hGLP1R 100% hP

Row | Substance | EC50 (hGIPR; [1]) | EC50 (hGLP1R; [2]) | EC50 (hNPY2R; [3]) | EC50 (hGIPR; [4]) | EC50 (hNPY2R; [5]) | EC50 (hGLP1R; [6])
1 | H-Y[Aib]EGTFTSDYSI[Aib]LEKQAQ[Aib]AFVEWLIK([εLys-γGlu-γGlu-γGlu-γGlu-γGlu-γGlu-C20 diacid])GGPSSYESLRHYYNWLTRQRY-NH2 [Compound 50, Y-Aib-E-G-T-F-T-S-D-Y-S-I-Aib-L-E-K-Q-A-Q-Aib-A-F-V-E-W-L-I-K(1,3)-GGPSSYESLRHYYNWLTRQRY-NH2.C20DA-gGlu-gGlu-gGlu-gGlu-gGlu-gGlu-eLys(1,2)] | 0.12 nM | 0.13 nM | 11.8 nM | – | – | –
2 | H-Y[Aib]EGTFTSDYSI[Aib]LEKQAQ[Aib]AFVEWLIK([εLys-γGlu-γGlu-γGlu-γGlu-γGlu-γGlu-C20 diacid])GGPSSYVSIRHYYNWLTRQRY-NH2 [Compound 9, Y-Aib-E-G-T-F-T-S-D-Y-S-I-Aib-L-E-K-Q-A-Q-Aib-A-F-V-E-W-L-I-K(1,3)-GGPSSYVSIRHYYNWLTRQRY-NH2.C20DA-gGlu-gGlu-gGlu-gGlu-gGlu-gGlu-eLys(1,2)] | 0.21 nM | 0.46 nM | 15.2 nM | 2.03 nM | 18.9 nM | –
3 | H-Y[Aib]EGTFTSDYSI[Aib]LEKQAQ[Aib]AFVEWLIK([εLys-γGlu-γGlu-γGlu-γGlu-γGlu-γGlu-C20 diacid])GGPSSYVSLRHYYNWLTRQRY-NH2 [Compound 40, Y-Aib-E-G-T-F-T-S-D-Y-S-I-Aib-L-E-K-Q-A-Q-Aib-A-F-V-E-W-L-I-K(1,3)-GGPSSYVSLRHYYNWLTRQRY-NH2.C20DA-gGlu-gGlu-gGlu-gGlu-gGlu-gGlu-eLys(1,2)] | 0.48 nM | 0.46 nM | 11.9 nM | 4.36 nM | 26.4 nM | –
4 | H-Y[Aib]EGTFTSDYSI[Aib]LEKQAQ[Aib]AFVEWLIK([εLys-γGlu-γGlu-γGlu-γGlu-γGlu-γGlu-C20 diacid])GGPSTGASLRHYYNWLTRQRY-NH2 [Compound 244, Y-Aib-E-G-T-F-T-S-D-Y-S-I-Aib-L-E-K-Q-A-Q-Aib-A-F-V-E-W-L-I-K(1,3)-GGPSTGASLRHYYNWLTRQRY-NH2.C20DA-gGlu-gGlu-gGlu-gGlu-gGlu-gGlu-eLys(1,2)] | 0.32 nM | 0.19 nM | 13.5 nM | – | – | –
5 | H-Y[Aib]EGTFTSDYSI[Aib]LEKQAQ[Aib]AFVEWLIK([εLys-γGlu-γGlu-γGlu-γGlu-γGlu-γGlu-C20 diacid])GGPSYGASLRHYYNWLTRQRY-NH2 [Compound 232, Y-Aib-E-G-T-F-T-S-D-Y-S-I-Aib-L-E-K-Q-A-Q-Aib-A-F-V-E-W-L-I-K(1,3)-GGPSYGASLRHYYNWLTRQRY-NH2.C20DA-gGlu-gGlu-gGlu-gGlu-gGlu-gGlu-eLys(1,2)] | 0.19 nM | 0.21 nM | 15.3 nM | 1.64 nM | 36.8 nM | –
6 | H-Y[Aib]EGTFTSDYSI[Aib]LEKQAQ[Aib]AFVEWLIK([εLys-γGlu-γGlu-γGlu-γGlu-γGlu-γGlu-C20 diacid])GGPSYYVSLRHYYNWLTRQRY-NH2 [Compound 80, Y-Aib-E-G-T-F-T-S-D-Y-S-I-Aib-L-E-K-Q-A-Q-Aib-A-F-V-E-W-L-I-K(1,3)-GGPSYYVSLRHYYNWLTRQRY-NH2.C20DA-gGlu-gGlu-gGlu-gGlu-gGlu-gGlu-eLys(1,2)] | 0.79 nM | 1.6 nM | 12.8 nM | – | 54.8 nM | –
7 | H-Y[Aib]EGTFTSDYSI[Aib]LEKQAQ[Aib]AFVEWLIK([εLys-γGlu-γGlu-γGlu-γGlu-γGlu-γGlu-γGlu-C20 diacid])GGPSEGASLRHYYNWLTRQRY-NH2 [Compound 288, Y-Aib-E-G-T-F-T-S-D-Y-S-I-Aib-L-E-K-Q-A-Q-Aib-A-F-V-E-W-L-I-K(1,3)-GGPSEGASLRHYYNWLTRQRY-NH2.C20DA-gGlu-gGlu-gGlu-gGlu-gGlu-gGlu-gGlu-eLys(1,2)] | 0.51 nM | 0.17 nM | 14.3 nM | 2.43 nM | 36.8 nM | –
8 | H-Y[Aib]EGTFTSDYSI[Aib]LEKQAQ[Aib]AFVQWLIK([AEEA-AEEA-Glu-Glu-Glu-C18 diacid])GGPEEGASLRHYYNWLTRQRY-NH2 [Compound 188, Y-Aib-E-G-T-F-T-S-D-Y-S-I-Aib-L-E-K-Q-A-Q-Aib-A-F-V-Q-W-L-I-K(1,3)-GGPEEGASLRHYYNWLTRQRY-NH2.C18DA-E-E-E-OEG-OEG(1,2)] | 0.12 nM | 0.15 nM | 16.9 nM | – | – | –
9 | H-Y[Aib]EGTFTSDYSI[Aib]LEKQAQ[Aib]AFVQWLIK([AEEA-AEEA-Glu-Glu-Glu-Glu-C18 diacid])GGPEEGASLRHYYNWLTRQRY-NH2 [Compound 177, Y-Aib-E-G-T-F-T-S-D-Y-S-I-Aib-L-E-K-Q-A-Q-Aib-A-F-V-Q-W-L-I-K(1,3)-GGPEEGASLRHYYNWLTRQRY-NH2.C18DA-E-E-E-E-OEG-OEG(1,2)] | 0.28 nM | 0.16 nM | 18.7 nM | – | 115 nM | –
10 | H-Y[Aib]EGTFTSDYSI[Aib]LEKQAQ[Aib]AFVQWLIK([AEEA-AEEA-Glu-Glu-Glu-Glu-C18 diacid])GGPESGASLRHYYNWLTRQRY-NH2 [Compound 52, Y-Aib-E-G-T-F-T-S-D-Y-S-I-Aib-L-E-K-Q-A-Q-Aib-A-F-V-Q-W-L-I-K(1,3)-GGPESGASLRHYYNWLTRQRY-NH2.C18DA-E-E-E-E-OEG-OEG(1,2)] | 0.12 nM | 0.09 nM | 18.7 nM | 0.65 nM | – | 3.17 nM
11 | H-Y[Aib]EGTFTSDYSI[Aib]LEKQAQ[Aib]AFVQWLIK([AEEA-AEEA-Glu-Glu-Glu-Glu-C20 diacid])GGPSEGASLRHYYNWLTRQRY-NH2 [Compound 239, Y-Aib-E-G-T-F-T-S-D-Y-S-I-Aib-L-E-K-Q-A-Q-Aib-A-F-V-Q-W-L-I-K(1,3)-GGPSEGASLRHYYNWLTRQRY-NH2.C20DA-E-E-E-E-OEG-OEG(1,2)] | 0.35 nM | 0.11 nM | 13.6 nM | – | – | 4.76 nM
12 | H-Y[Aib]EGTFTSDYSI[Aib]LEKQAQ[Aib]AFVQWLIK([AEEA-AEEA-γGlu-γGlu-γGlu-C18 diacid])GGPEEGASLRHYYNWLTRQRY-NH2 [Compound 144, Y-Aib-E-G-T-F-T-S-D-Y-S-I-Aib-L-E-K-Q-A-Q-Aib-A-F-V-Q-W-L-I-K(1,3)-GGPEEGASLRHYYNWLTRQRY-NH2.C18DA-gGlu-gGlu-gGlu-OEG-OEG(1,2)] | 1.15 nM | 0.16 nM | 15.8 nM | 0.79 nM | 48.7 nM | –
13 | H-Y[Aib]EGTFTSDYSI[Aib]LEKQAQ[Aib]AFVQWLIK([AEEA-AEEA-γGlu-γGlu-γGlu-γGlu-C18 diacid])GGPEEGASLRHYYNWLTRQRY-NH2 [Compound 146, Y-Aib-E-G-T-F-T-S-D-Y-S-I-Aib-L-E-K-Q-A-Q-Aib-A-F-V-Q-W-L-I-K(1,3)-GGPEEGASLRHYYNWLTRQRY-NH2.C18DA-gGlu-gGlu-gGlu-gGlu-OEG-OEG(1,2)] | 0.77 nM | 0.14 nM | 14 nM | 0.73 nM | – | –
14 | H-Y[Aib]EGTFTSDYSI[Aib]LEKQAQ[Aib]AFVQWLIK([AEEA-AEEA-γGlu-γGlu-γGlu-γGlu-C18 diacid])GGPESGASLRHYYNWLTRQRY-NH2 [Compound 58, Y-Aib-E-G-T-F-T-S-D-Y-S-I-Aib-L-E-K-Q-A-Q-Aib-A-F-V-Q-W-L-I-K(1,3)-GGPESGASLRHYYNWLTRQRY-NH2.C18DA-gGlu-gGlu-gGlu-gGlu-OEG-OEG(1,2)] | 0.24 nM | 0.05 nM | 10.2 nM | 0.31 nM | – | 2 nM
